pIC50: −log10 of the molar value.
How the values were obtained:
[1] = tested on: SW620 cells (KRAS G12V); assay: Cell-based pERK HTRF assay in SW620 cell (Biological Example 4); settings: Homo sapiens, SW-620, SW620 (KRAS G12V) cells, pERK HTRF
Procedure, shortened: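 Read-out: HTRF pERK signal (excitation 320 nm, emission 615 nm) from lysates of SW620 cells after 4 h compound exposure. Dose range was 9 points, half-log steps from 1 μM, in 0.25% DMSO; antibody incubation ran 4–24 h at room temperature.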

[2] = target: T1, Avi-KRAS G12V (1-169) GppNHp/RAF1 RBD-3xFLAG (52-151) (Homo sapiens, UniProt P01116, G12V); assay: Raf1-KRAS G12V-GppNHP disruption HTRF assay (Biological Example 1); format: binding
T1 construct: Avi-KRAS G12V (1-169)
T1 sequence (P01116 1-169 isoform P01116-2 G12V): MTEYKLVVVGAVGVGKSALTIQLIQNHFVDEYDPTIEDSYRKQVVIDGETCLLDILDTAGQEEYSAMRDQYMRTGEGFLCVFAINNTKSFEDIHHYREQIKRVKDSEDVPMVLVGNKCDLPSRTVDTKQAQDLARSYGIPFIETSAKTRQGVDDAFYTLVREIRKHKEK
Procedure, shortened: (§1)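 HTRF PPI disruption; buffer 50 mM Tris pH 7.5, 100 mM NaCl, 5 mM MgCl2, 0.1% BSA, 0.01% Tween, 10% DMSO. Protein mix 1 h RT shaking, reagent mix 1 h RT shaking. Data as % activity vs DMSO (100%).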

[3] = target: T2, Avi-KRAS G12R (1-169) GppNHp/RAF1 RBD-3xFLAG (52-151) (Homo sapiens, UniProt P01116, G12R); assay: Raf1-KRAS G12R-GppNHP disruption HTRF assay (Biological Example 1); format: binding
T2 construct: Avi-KRAS G12R (1-169)
T2 sequence (P01116 1-169 isoform P01116-2 G12R): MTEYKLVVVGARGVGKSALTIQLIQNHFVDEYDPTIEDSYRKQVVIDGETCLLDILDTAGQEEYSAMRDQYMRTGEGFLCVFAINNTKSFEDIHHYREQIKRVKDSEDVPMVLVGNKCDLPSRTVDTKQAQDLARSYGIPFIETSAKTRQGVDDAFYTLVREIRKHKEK
Procedure, shortened: as §1

[4] = target: T3, Avi-KRAS WT (1-169) GppNHp/RAF1 RBD-3xFLAG (52-151) (Homo sapiens, UniProt P01116); assay: Raf1-KRAS WT-GppNHP disruption HTRF assay (Biological Example 1); format: binding
T3 construct: Avi-KRAS WT (1-169)
T3 sequence (P01116 1-169 isoform P01116-2): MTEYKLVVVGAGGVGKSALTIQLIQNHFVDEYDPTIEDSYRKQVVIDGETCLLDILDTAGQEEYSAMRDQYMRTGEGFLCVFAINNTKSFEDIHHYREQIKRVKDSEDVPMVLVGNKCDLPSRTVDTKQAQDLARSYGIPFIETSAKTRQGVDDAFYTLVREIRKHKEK
Procedure, shortened: as §1

[5] = tested on: GP2d cells (KRAS G12D); assay: Cell-based pERK HTRF assay in GP2d cell (Biological Example 2); settings: GP2d, GP2d (KRAS G12D) cells, pERK HTRF
Procedure, shortened: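 Phospho-ERK in lysed cells was detected by HTRF using Eu cryptate and d2 antibodies, read between 4 and 24 h at room temperature. Prior to lysis, KRAS G12D GP2d cells, seeded the day before in DMEM with 10% FBS, were exposed to compounds for 60 min. Compounds were tested as 9-point half-log curves from 1 μM or 100 nM top, with 0.25% DMSO.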

[6] = target: T4, Avi-KRAS G12D (1-169) GppNHp/RAF1 RBD-3xFLAG (52-151) (Homo sapiens, UniProt P01116, G12D); assay: Raf1-KRAS G12D-GppNHP disruption HTRF assay (Biological Example 1); format: binding
T4 construct: Avi-KRAS G12D (1-169)
T4 sequence (P01116 1-169 isoform P01116-2 G12D): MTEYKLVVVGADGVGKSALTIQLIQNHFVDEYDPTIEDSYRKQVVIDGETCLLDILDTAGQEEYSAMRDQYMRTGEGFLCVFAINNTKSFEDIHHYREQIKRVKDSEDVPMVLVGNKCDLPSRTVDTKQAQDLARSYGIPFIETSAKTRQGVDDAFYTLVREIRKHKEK
Procedure, shortened: as §1

[7] = KRAS G12V, GppNHp-loaded, class symbols
[8] = KRAS G12R, GppNHp-loaded, class symbols
[9] = KRAS WT, GppNHp-loaded, class symbols
[10] = KRAS G12D, GppNHp-loaded, class symbols

SMILES | pIC50 ([1]; class symbols) | pIC50 [2, 7] | pIC50 [3, 8] | pIC50 [4, 9] | pIC50 ([5]; class symbols) | pIC50 [6, 10] | pIC50 [1] | pIC50 ([2]; KRAS G12V-GppNHp/RAF1 RBD HTRF) | pIC50 ([3]; KRAS G12R-GppNHp/RAF1 RBD HTRF) | pIC50 ([4]; KRAS WT-GppNHp/RAF1 RBD HTRF) | pIC50 [5] | pIC50 ([6]; KRAS G12D-GppNHp/RAF1 RBD HTRF)
CCN(c1nc(OCC23CCCN2CC(F)C3)nc2c(F)c(-c3ccc(F)c4sc(N)c(C#N)c34)c(C(F)(F)F)cc12)C1CCN(C(=O)c2ncon2)C1 (stereo not drawn) [Compound 754] | > 7.00 | 6.00 to 7.00 | > 7.00 | 6.00 to 7.00 | > 7.00 | > 7.00 |  |  |  |  |  | 
CCN(c1nc(OC[C@@]23CCCN2C[C@H](F)C3)nc2c(F)c(-c3ccc(F)c4sc(N)c(C#N)c34)c(C(F)(F)F)cc12)[C@H]1CCN(C(=O)C2(C#N)CC2)C1 [Compound 560] |  |  |  |  |  |  | > 7.00 | > 7.00 | > 7.00 | > 7.00 | > 7.00 | > 7.00
CCN(c1nc(OC[C@@]23CCCN2C[C@H](F)C3)nc2c(F)c(-c3ccc(F)c4sc(N)c(C#N)c34)c(C(F)(F)F)cc12)[C@@H]1CN2C(=O)OC[C@]2(C)C1 (atropisomer, axis not shown) [Compound 795] | > 7.00 | > 7.00 | > 7.00 | > 7.00 | > 7.00 | > 7.00 |  |  |  |  |  | 
CCN1CC[C@H](N(CC)c2nc(OC[C@@]34CCCN3C[C@H](F)C4)nc3c(F)c(-c4ccc(F)c5sc(N)c(C#N)c45)c(C(F)(F)F)cc23)C1=O (atropisomer, axis not shown) [Compound 694] | > 7.00 | 6.00 to 7.00 | 6.00 to 7.00 | 6.00 to 7.00 | > 7.00 | > 7.00 |  |  |  |  |  | 
N#Cc1c(N)sc2c(F)ccc(-c3c(C(F)(F)F)cc4c(N5CCn6nc(C(=O)N7CC(O)C7)cc6C5)nc(OC[C@@]56CCCN5C[C@H](F)C6)nc4c3F)c12 [Compound 502] |  |  |  |  |  |  | 6.00 to 7.00 | 6.00 to 7.00 | 6.00 to 7.00 | 6.00 to 7.00 | > 7.00 | 6.00 to 7.00
C[C@@H]1[C@H](N(C)c2nc(OC[C@@]34CCCN3C[C@H](F)C4)nc3c(F)c(-c4ccc(F)c5sc(N)c(C#N)c45)c(Cl)cc23)CCN1C(=O)C1CC1 [Compound 401] |  |  |  |  |  |  | > 7.00 | 6.00 to 7.00 | 6.00 to 7.00 | 6.00 to 7.00 | > 7.00 | 6.00 to 7.00
CCN(c1nc(OC[C@@]23CCCN2C[C@H](F)C3)nc2c(F)c(-c3ccc(F)c4sc(N)c(C#N)c34)c(C(F)(F)F)cc12)[C@H]1CCN(C(=O)OCC2CC2)C1 (atropisomer, axis not shown) [Compound 620] | > 7.00 | > 7.00 | > 7.00 | 6.00 to 7.00 | > 7.00 | > 7.00 |  |  |  |  |  | 
CCN(c1nc(OC[C@@]23CCCN2C[C@H](F)C3)nc2c(F)c(-c3ccc(F)c4sc(N)c(C#N)c34)c(C(F)(F)F)cc12)[C@H]1CCN(C(=O)OC2CC2)C1 (atropisomer, axis not shown) [Compound 599] | > 7.00 | > 7.00 | > 7.00 | > 7.00 | > 7.00 | > 7.00 |  |  |  |  |  | 
N#Cc1c(N)sc2c(F)ccc(-c3c(C(F)(F)F)cc4c(N5CCc6nocc6C5)nc(OC[C@@]56CCCN5C[C@H](F)C6)nc4c3F)c12 [Compound 457] |  |  |  |  |  |  | > 7.00 | 6.00 to 7.00 | 6.00 to 7.00 | 6.00 to 7.00 | > 7.00 | 6.00 to 7.00
CCN(c1nc(OC[C@@]23CCCN2C[C@H](F)C3)nc2c(F)c(-c3ccc(F)c4sc(N)c(C#N)c34)c(C(F)(F)F)cc12)[C@H]1CCN(C(=O)[C@H]2C[C@H]2F)C1 (atropisomer, axis not shown) [Compound 750] | > 7.00 | > 7.00 | > 7.00 | > 7.00 | > 7.00 | > 7.00 |  |  |  |  |  | 
CCN(c1nc(OC[C@@]23CCCN2C[C@H](F)C3)nc2c(F)c(-c3ccc(F)c4sc(N)c(C#N)c34)c(C(F)(F)F)cc12)[C@H]1CCN(C(=O)C2(F)CC2)C1 (atropisomer, axis not shown) [Compound 559] |  |  |  |  |  |  | > 7.00 | > 7.00 | > 7.00 | 6.00 to 7.00 | > 7.00 | > 7.00

From US20260042764A1, “COMPOSITIONS AND METHODS FOR INHIBITION OF KRAS” (TheRas, Inc., priority 2022, published 2026)
